Reference: ChEMBL document CHEMBL1201862, “PubChem BioAssay data set” (2004)
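Tested at 5 concentrations; 48 h exposure; 96-well plates; endpoints linearly interpolated, else capped at highest concentration. GI50 marks 50% less growth.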 The source made the active and inactive calls. Rule as the data show it: active = GI50 up to about 1.1 µM and inactive = higher.

Assays:
Test in all cases: DTP human tumour cell line panel, 48 h
[1] = system: SF-268
[2] = system: EKVX
[3] = system: NCI/ADR-RES
[4] = system: Malme-3M
[5] = system: LOX IMVI
[6] = system: CCRF-CEM
[7] = system: A498
[8] = system: OVCAR-3
[9] = system: PC-3
[10] = system: OVCAR-5
[11] = system: HCT-116
[12] = system: UACC-62
[13] = system: SK-MEL-28
[14] = system: IGROV-1
[15] = system: RPMI-8226
[16] = system: OVCAR-8
[17] = system: SN12C
[18] = system: SNB-19
[19] = system: UACC-257
[20] = system: K562

Structure (SMILES): COC(=O)C1=C(C(=O)OC)C2OC1c1cc3ccccc3cc12
- GI50 [1]: 18.3 µM (inactive)
- GI50 [2]: 6.07 µM (inactive)
- GI50 [3]: 10.8 µM (inactive)
- GI50 [4]: 2.5 µM (inactive)
- GI50 [5]: 15.2 µM (inactive)
- GI50 [6]: 1.69 µM (inactive)
- GI50 [7]: 21.1 µM (inactive)
- GI50 [8]: 2.88 µM (inactive)
- GI50 [9]: 15.2 µM (inactive)
- GI50 [10]: 4.88 µM (inactive)
- GI50 [11]: 1.74 µM (inactive)
- GI50 [12]: 14.5 µM (inactive)
- GI50 [13]: 2 µM (inactive)
- GI50 [14]: 5.01 µM (inactive)
- GI50 [15]: 2.33 µM (inactive)
- GI50 [16]: 4.49 µM (inactive)
- GI50 [17]: 16.4 µM (inactive)
- GI50 [18]: 18.7 µM (inactive)
- GI50 [19]: 6.32 µM (inactive)

Structure (SMILES): CN(C)CCOc1ccc2[nH]c(C(=O)N3CC(CCl)c4c3cc([N+](=O)[O-])c3ccccc43)cc2c1 (stereo not given)
- GI50 [1]: 1.71 µM (inactive)
- GI50 [2]: 3.13 µM (inactive)
- GI50 [3]: 1.65 µM (inactive)
- GI50 [4]: 1.94 µM (inactive)
- GI50 [5]: 2.58 µM (inactive)
- GI50 [6]: 1.58 µM (inactive)
- GI50 [7]: 2.94 µM (inactive)
- GI50 [8]: 1.87 µM (inactive)
- GI50 [9]: 2.78 µM (inactive)
- GI50 [10]: 2.32 µM (inactive)
- GI50 [11]: 1.67 µM (inactive)
- GI50 [12]: 2.21 µM (inactive)
- GI50 [13]: 1.72 µM (inactive)
- GI50 [14]: 2.14 µM (inactive)
- GI50 [15]: 2.67 µM (inactive)
- GI50 [16]: 1.6 µM (inactive)
- GI50 [20]: 1.79 µM (inactive)
- GI50 [18]: 2.36 µM (inactive)
- GI50 [19]: 2.01 µM (inactive)

Structure (SMILES): O1C2C1C1OC1C1OC1C1OC21 (stereo not given)
- GI50 [1]: > 100 µM (inactive)
- GI50 [2]: > 100 µM (inactive)
- GI50 [3]: > 100 µM (inactive)
- GI50 [4]: > 100 µM (inactive)
- GI50 [5]: > 100 µM (inactive)
- GI50 [6]: < 0.01 µM (active)
- GI50 [7]: > 100 µM (inactive)
- GI50 [9]: > 100 µM (inactive)
- GI50 [10]: > 100 µM (inactive)
- GI50 [11]: > 100 µM (inactive)
- GI50 [12]: > 100 µM (inactive)
- GI50 [13]: > 100 µM (inactive)
- GI50 [16]: > 100 µM (inactive)
- GI50 [20]: > 100 µM (inactive)
- GI50 [17]: > 100 µM (inactive)
- GI50 [18]: > 100 µM (inactive)
- GI50 [19]: > 100 µM (inactive)

Structure (SMILES): O=C(CN1CCOCC1)Nc1ccc2c(c1)C1Oc3ccccc3CC1CO2 (stereo not given)
- GI50 [1]: > 100 µM (inactive)
- GI50 [2]: > 100 µM (inactive)
- GI50 [3]: > 100 µM (inactive)
- GI50 [4]: > 100 µM (inactive)
- GI50 [5]: > 100 µM (inactive)
- GI50 [6]: > 100 µM (inactive)
- GI50 [7]: > 100 µM (inactive)
- GI50 [8]: > 100 µM (inactive)
- GI50 [9]: > 100 µM (inactive)
- GI50 [10]: > 100 µM (inactive)
- GI50 [11]: > 100 µM (inactive)
- GI50 [12]: > 100 µM (inactive)
- GI50 [14]: > 100 µM (inactive)
- GI50 [15]: > 100 µM (inactive)
- GI50 [16]: > 100 µM (inactive)
- GI50 [20]: > 100 µM (inactive)
- GI50 [17]: > 100 µM (inactive)
- GI50 [18]: > 100 µM (inactive)
- GI50 [19]: > 100 µM (inactive)

Structure (SMILES): C(=C\c1ccccc1)/C=N/c1ccc2c(c1)Cc1ccccc1-2
- GI50 [1]: 38.9 µM (inactive)
- GI50 [2]: 49.1 µM (inactive)
- GI50 [3]: 51.3 µM (inactive)
- GI50 [4]: > 100 µM (inactive)
- GI50 [5]: 23.9 µM (inactive)
- GI50 [6]: 14.7 µM (inactive)
- GI50 [7]: > 100 µM (inactive)
- GI50 [8]: 46 µM (inactive)
- GI50 [9]: 69 µM (inactive)
- GI50 [10]: > 100 µM (inactive)
- GI50 [11]: 35.9 µM (inactive)
- GI50 [12]: > 100 µM (inactive)
- GI50 [13]: 97.3 µM (inactive)
- GI50 [14]: 61.5 µM (inactive)
- GI50 [16]: 57.9 µM (inactive)
- GI50 [20]: 34.2 µM (inactive)
- GI50 [17]: 41.1 µM (inactive)
- GI50 [18]: 61.4 µM (inactive)

Structure (SMILES): CO/N=C1\CCC2(O)C3Cc4ccc(O)c5c4C2(CCN3CC2CC2)[C@H]1O5 (stereo not given in full)
- GI50 [1]: > 100 µM (inactive)
- GI50 [2]: > 100 µM (inactive)
- GI50 [3]: > 100 µM (inactive)
- GI50 [4]: > 100 µM (inactive)
- GI50 [5]: > 100 µM (inactive)
- GI50 [6]: > 100 µM (inactive)
- GI50 [7]: > 100 µM (inactive)
- GI50 [8]: > 100 µM (inactive)
- GI50 [9]: > 100 µM (inactive)
- GI50 [10]: > 100 µM (inactive)
- GI50 [11]: > 100 µM (inactive)
- GI50 [12]: > 100 µM (inactive)
- GI50 [13]: > 100 µM (inactive)
- GI50 [14]: > 100 µM (inactive)
- GI50 [15]: > 100 µM (inactive)
- GI50 [16]: > 100 µM (inactive)
- GI50 [20]: > 100 µM (inactive)
- GI50 [17]: > 100 µM (inactive)
- GI50 [18]: > 100 µM (inactive)

Structure (SMILES): CCCCOP(=O)(OCCCC)/C(C#N)=C/c1ccc(C)o1
- GI50 [1]: 63.4 µM (inactive)
- GI50 [2]: 40.6 µM (inactive)
- GI50 [3]: 15.5 µM (inactive)
- GI50 [4]: 29.6 µM (inactive)
- GI50 [5]: 59 µM (inactive)
- GI50 [7]: 56 µM (inactive)
- GI50 [8]: 14.5 µM (inactive)
- GI50 [9]: 23.9 µM (inactive)
- GI50 [10]: 86.3 µM (inactive)
- GI50 [11]: 36.9 µM (inactive)
- GI50 [12]: 53.7 µM (inactive)
- GI50 [13]: 60.8 µM (inactive)
- GI50 [14]: > 100 µM (inactive)
- GI50 [15]: 54.8 µM (inactive)
- GI50 [16]: 53.6 µM (inactive)
- GI50 [20]: 31.2 µM (inactive)
- GI50 [17]: 56.1 µM (inactive)
- GI50 [18]: > 100 µM (inactive)
- GI50 [19]: 27.4 µM (inactive)
